In article PMC7311426, “An amphipathic peptide with antibiotic activity against multidrug-resistant Gram-negative bacteria” (Nature Communications, 2020):
Converted amounts (≈) assume the structure as drawn. Like-named read-outs stand apart in the source and are kept apart here.

Legend:
Assay in all cases: microbe, parasite or virus in culture
K. pneumoniae = settings: Klebsiella pneumoniae
Method in brief: (§1)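 Broth microdilution in MHB, 2-fold 12-point series from 128 or 64 down to 0.06 or 0.03 μg mL^−1, 5 × 10^5 CFU mL^−1. Extra runs in CAMHB per CLSI and in MHB with 1% agarose; n ≥ 6.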

P. aeruginosa = settings: Pseudomonas aeruginosa
Method in brief: as §1

[1] = tested on: A. baumannii clinical isolates
Description: The in vitro activity of AA139 and comparator antimicrobials was determined in two panels of clinical isolates of E. coli, K. pneumoniae, P. aeruginosa, and A. baumannii (Supplementary Table 3), and MIC90 presented. The US panel consisted of 331 clinical isolates from 2010 to 2012. It was tested by BMD in accordance with the CLSI guidelines (M07-A9, 2012)[39]. […] AA139 was diluted in 0.01% acetic acid/0.1% bovine serum albumin. Sterile polypropylene culture cluster round-bottom 96-well plates (Costar # 3879) were used for testing. The worldwide panel consisted of 445 clinical isolates from 2011 to 2013, geographically divided into Asia, Europe, North America, and Rest of World (Middle East, Latin America, Africa, and South Pacific) with each region representing ~25% of the isolates. It was tested by broth microdilution in accordance with the CLSI guidelines (M07-A9, 2012)[39]. […] The test media was CAMHB (Becton Dickinson). AA139 and polymyxin B were tested in media supplemented with 0.002% Tween 80 (Calbiochem). MIC90 values were calculated for all or subsets of the isolates. MIC correlation between AA139 and colistin was analyzed with data from the US panel.

[2] = A. baumannii, worldwide isolates 2011-2013, n = 108

C[C@H]1COc2c(N3CCN(C)CC3)c(F)cc3c(=O)c(C(=O)O)cn1c23 [LEV, levofloxacin, reference compound]
MIC (K. pneumoniae; read-out: MIC, broth microdilution, K. pneumoniae 3010 spontaneous mutant, AA139 selection 4X, plate 1, colony 1, drug-free passage 1): 0.06 µg/mL (≈ 0.166 µM)
MIC (K. pneumoniae; read-out: MIC, broth microdilution, K. pneumoniae 3010 spontaneous mutant, AA139 selection 4X, plate 1, colony 1, drug-free passage 5): 0.06 µg/mL (≈ 0.166 µM)
MIC (K. pneumoniae; read-out: MIC, broth microdilution, K. pneumoniae 3010 spontaneous mutant, AA139 selection 8X, plate 1, colony 1, drug-free passage 1): 0.06 µg/mL (≈ 0.166 µM)
MIC (K. pneumoniae; read-out: MIC, broth microdilution, K. pneumoniae 3010 spontaneous mutant, AA139 selection 8X, plate 1, colony 1, drug-free passage 5): 0.06 µg/mL (≈ 0.166 µM)
MIC (P. aeruginosa; ATCC27853, read-out: MIC, broth microdilution, P. aeruginosa ATCC 27853 spontaneous mutant, AA139 selection 4X, plate 1, colony 2, drug-free passage 1): 2 µg/mL (≈ 5.53 µM)
MIC (P. aeruginosa; ATCC27853, read-out: MIC, broth microdilution, P. aeruginosa ATCC 27853 spontaneous mutant, AA139 selection 4X, plate 1, colony 3, drug-free passage 5): 2 µg/mL (≈ 5.53 µM)
MIC (P. aeruginosa; ATCC27853, read-out: MIC, broth microdilution, P. aeruginosa ATCC 27853 spontaneous mutant, AA139 selection 4X, plate 1, colony 4, drug-free passage 1): 2 µg/mL (≈ 5.53 µM)
MIC (P. aeruginosa; ATCC27853, read-out: MIC, broth microdilution, P. aeruginosa ATCC 27853 spontaneous mutant, AA139 selection 4X, plate 1, colony 5, drug-free passage 1): 2 µg/mL (≈ 5.53 µM)
MIC (P. aeruginosa; ATCC27853, read-out: MIC, broth microdilution, P. aeruginosa ATCC 27853 spontaneous mutant, AA139 selection 4X, plate 1, colony 5, drug-free passage 5): 2 µg/mL (≈ 5.53 µM)
MIC (P. aeruginosa; ATCC27853, read-out: MIC, broth microdilution, P. aeruginosa ATCC 27853 spontaneous mutant, AA139 selection 4X, plate 1, colony 6, drug-free passage 1): 2 µg/mL (≈ 5.53 µM)
MIC (P. aeruginosa; ATCC27853, read-out: MIC, broth microdilution, P. aeruginosa ATCC 27853 spontaneous mutant, AA139 selection 4X, plate 2, colony 1, drug-free passage 1): 2 µg/mL (≈ 5.53 µM)
MIC (P. aeruginosa; ATCC27853, read-out: MIC, broth microdilution, P. aeruginosa ATCC 27853 spontaneous mutant, AA139 selection 4X, plate 2, colony 2, drug-free passage 1): 2 µg/mL (≈ 5.53 µM)
MIC (P. aeruginosa; ATCC27853, read-out: MIC, broth microdilution, P. aeruginosa ATCC 27853 spontaneous mutant, AA139 selection 8X, plate 1, colony 1, drug-free passage 5): 2 µg/mL (≈ 5.53 µM)
MIC (P. aeruginosa; ATCC27853, read-out: MIC, broth microdilution, P. aeruginosa ATCC 27853 spontaneous mutant, AA139 selection 8X, plate 1, colony 2, drug-free passage 1): 2 µg/mL (≈ 5.53 µM)
MIC (P. aeruginosa; read-out: MIC, broth microdilution, P. aeruginosa UNT 138-1 spontaneous mutant, AA139 selection 4X, plate 1, colony 1, drug-free passage 1): 2 µg/mL (≈ 5.53 µM)
MIC50 [1, 2]: 16 µg/mL (≈ 44.3 µM)
MIC90 [1, 2]: > 32 µg/mL
Number of isolates with MIC 0.03 (MIC frequency distribution) ([1]; A. baumannii, worldwide isolates 2011-2013, n = 108, count of isolates at MIC 0.03): 1
Number of isolates with MIC 0.06 (MIC frequency distribution) ([1]; A. baumannii, worldwide isolates 2011-2013, n = 108, count of isolates at MIC 0.06): 4
Number of isolates with MIC 0.125 (MIC frequency distribution) ([1]; A. baumannii, worldwide isolates 2011-2013, n = 108, count of isolates at MIC 0.125): 8
Number of isolates with MIC 0.25 (MIC frequency distribution) ([1]; A. baumannii, worldwide isolates 2011-2013, n = 108, count of isolates at MIC 0.25): 2
Number of isolates with MIC 0.5 (MIC frequency distribution) ([1]; A. baumannii, worldwide isolates 2011-2013, n = 108, count of isolates at MIC 0.5): 3
Number of isolates with MIC 1 (MIC frequency distribution) ([1]; A. baumannii, worldwide isolates 2011-2013, n = 108, count of isolates at MIC 1): 0
Number of isolates with MIC 2 (MIC frequency distribution) ([1]; A. baumannii, worldwide isolates 2011-2013, n = 108, count of isolates at MIC 2): 0
Number of isolates with MIC 4 (MIC frequency distribution) ([1]; A. baumannii, worldwide isolates 2011-2013, n = 108, count of isolates at MIC 4): 6
Number of isolates with MIC 8 (MIC frequency distribution) ([1]; A. baumannii, worldwide isolates 2011-2013, n = 108, count of isolates at MIC 8): 22
Number of isolates with MIC 16 (MIC frequency distribution) ([1]; A. baumannii, worldwide isolates 2011-2013, n = 108, count of isolates at MIC 16): 20
Number of isolates with MIC 32 (MIC frequency distribution) ([1]; A. baumannii, worldwide isolates 2011-2013, n = 108, count of isolates at MIC 32): 19
Number of isolates with MIC 64 (MIC frequency distribution) ([1]; A. baumannii, worldwide isolates 2011-2013, n = 108, count of isolates at MIC 64): 0
Number of isolates with MIC 128 (MIC frequency distribution) ([1]; A. baumannii, worldwide isolates 2011-2013, n = 108, count of isolates at MIC 128): 0
Number of isolates with MIC >16 (MIC frequency distribution) ([1]; A. baumannii, worldwide isolates 2011-2013, n = 108, count of isolates at MIC >16): 0
Number of isolates with MIC >32 (MIC frequency distribution) ([1]; A. baumannii, worldwide isolates 2011-2013, n = 108, count of isolates at MIC >32): 23
Number of isolates with MIC >128 (MIC frequency distribution) ([1]; A. baumannii, worldwide isolates 2011-2013, n = 108, count of isolates at MIC >128): 0
Number of isolates with MIC ≤0.015 (MIC frequency distribution) ([1]; A. baumannii, worldwide isolates 2011-2013, n = 108, count of isolates at MIC ≤0.015): 0
MIC90 ([1]; Acinetobacter baumannii): > 32 µg/mL
